Assay results taken from US9096536B2, “Asymmetrically substituted anthrapyridazone derivatives as cytostatics” (BS-154 S.P. ZO.O., priority 2011, dated 2015).
Converted amounts (≈) assume the structure as drawn. Like-named read-outs stand apart in the source and are kept apart here.

Legend:
[1] = tested on: human promyelocytic leukemia cell line HL-60; assay: Cytostatic activity in vitro, HL-60 sensitive line; assay type: cell-based; conditions: read-out: HL60 IC50
From the text: (§1) Tables 3 and 4 show cytostatic activity in vitro of 2,6-disubstituted and 2- or 6-monosubstituted (Tab.3), and of 2,5-disubstituted-(Tab.-4) tetracyclic anthrapyridazone derivatives using leukemia cell line HL-60 and the resistant cell sublines with resistance induced by vincristine (MDR-1) or doxorubicin (MRP). Activity of compounds is differentiated depending on their structure, but in all cases resistance indexes are more advantageous in comparison with reference compounds: doxorubicin and mitoxantrone.

HL60/VINC [2] = assay: Cytostatic activity in vitro, vincristine-induced resistant subline (MDR-1); assay type: cell-based, human; conditions: for RI resistance index HL60/VINC: HL60/VINC vs HL60, 72 h
From the text: as §1

HL60/DX [3] = assay: Cytostatic activity in vitro, doxorubicin-induced resistant subline (MRP); assay type: cell-based, human; conditions: for RI resistance index HL60/DX: IC50(resistant cells)/IC50(sensitive cells)
From the text: as §1

[4] = tested on: human prostate cancer cell line DU145; assay: Cytostatic activity in vitro, prostate cancer DU145; assay type: cell-based; conditions: 72 h continuous exposure
From the text: (§2) Table 5 presents activity in vitro of anthrapiridazone derivatives towards three cell lines of prostate cancer, naturally multidrug resistant, in comparison with references doxorubicin, mitoxantrone and taxol.

[5] = tested on: human prostate cancer cell line LNCaP; assay: Cytostatic activity in vitro, prostate cancer LNCaP; assay type: cell-based; conditions: 72 h continuous exposure
From the text: as §2

[6] = tested on: human prostate cancer cell line PC3; assay: Cytostatic activity in vitro, prostate cancer PC3; assay type: cell-based; conditions: 72 h continuous exposure
From the text: as §2

[7] = tested on: human breast cancer cell line MCF7; assay: Cytostatic activity in vitro, breast cancer MCF7; assay type: cell-based; conditions: 72 h continuous exposure
From the text: (§3) It should be mentioned that resistance index is above one order of magnitude better in comparison with doxorubicin and mitoxantrone.

MCF7/DX = assay: Cytostatic activity in vitro, resistant breast cancer subline MCF7/DX (MDR-1); assay type: cell-based, human; conditions: for IC50: 72 h continuous exposure; for RI resistance index MCF7/DX: IC50(resistant cells)/IC50(sensitive cells), MCF7/DX vs MCF7
From the text: as §3

[8] = tested on: human colon adenocarcinoma HT29; assay: Cytostatic activity in vitro, colon adenocarcinoma HT29; assay type: cell-based; conditions: 72 h continuous exposure
From the text: (§4) Table 7 presents activity in vitro of selected anthrapyridazone derivatives according to the invention towards sensitive and resistant (MDR-1 type) cell line of human colon adenocarcinoma with resistance induced by mitoxantrone.

HT29/MIT = assay: Cytostatic activity in vitro, mitoxantrone-induced resistant subline HT29/MIT; assay type: cell-based, human; conditions: for IC50: 72 h continuous exposure; for RI resistance index HT29/MIT: IC50(resistant cells)/IC50(sensitive cells), HT29/MIT vs HT29
From the text: as §4

uterus cancer MES-SA = assay: Cytostatic activity, panel: uterus cancer MES-SA; assay type: cell-based; conditions: 72 h continuous exposure; for IC50: Homo sapiens, MES-SA
From the text: (§5) Tables 8A and 8B present cytostatic activity in vitro of selected anthrapyridazone derivatives according to the invention against panel of sensitive and resistant cell lines, in comparison with doxorubicin, cisplatine and mitoxantrone.

MES-SA/DX5 = assay: Cytostatic activity, panel: MES-SA/DX5 resistant to doxorubicin; assay type: cell-based; conditions: for IC50: Homo sapiens, MES-SA/Dx5; for RI MES-SA MES-SA/DX5: IC50(resistant cells)/IC50(sensitive cells)
From the text: as §5

colon cancer LoVo = assay: Cytostatic activity, panel: colon cancer LoVo; assay type: cell-based; conditions: 72 h continuous exposure; for IC50: Homo sapiens, LoVo
From the text: as §5

LoVo/DX = assay: Cytostatic activity, panel: LoVo/DX resistant to doxorubicin; assay type: cell-based; conditions: for RI LoVo LoVo/DX: IC50(resistant cells)/IC50(sensitive cells); for IC50: LoVo/DX
From the text: as §5

CT-DNA = assay: Interaction with isolated CT-DNA, fluorescence competition with ethidium bromide; assay type: binding; conditions: for IC50: 50% decrease in fluorescence intensity of DNA-bromide ethydine complex; for Kapp relative constant of DNA-compound bonding: Kapp = (1.26/C50) × KEtBr, KEtBr = 10^7M
From the text: It could be supposed that this property explains cytostatic activity of compounds. In Table 9 there are presented quantitative data on the affinity to DNA of tested compounds using the fluorescence method and competitive affinity to DNA of bromine ethydine and tested compounds.

HL60/VINC [9] = assay: Substrate properties: activity against HL60/VINC in the presence of cyclosporine A (MDR-1 pump inhibitor); assay type: cell-based, human; conditions: FIG. 2
From the text: FIG. 2 shoes experimentally determined substrate properties of selected antgraoyridazone derivatives vs. Doxorubicin and Mitroxantrone. Activity in vitro against human promyelacytic leykemia cell line HL60/VINC in the presence of cyclosporine A (MDR-1 pump inhibitor).

HL60/DX [10] = assay: Substrate properties: activity against HL60/DX in the presence of BSO (MRP pump inhibitor); assay type: cell-based, human; conditions: FIG. 3
From the text: Activity in vitro against human promyelolytic leukemia HL60/DX in the presence of D-L-buthionine-(S,R)-sulphoximine (BSO), MRP pump inhibitor.

[11] = tested on: lymphoblastic leukemia CCRF-CEM; assay: Cytostatic activity, panel: lymphoblastic leukemia CCRF-CEM; assay type: cell-based; conditions: 72 h continuous exposure
From the text: as §5

CEM/C2 = assay: Cytostatic activity, panel: CEM/C2 resistant to camptotecine; assay type: cell-based; conditions: for RI CCRF-CEM CEM/C2: IC50(resistant cells)/IC50(sensitive cells)
From the text: as §5

[12] = tested on: promyelolytic leukemia HL-60; assay: Cytostatic activity, panel: promyelolytic leukemia HL-60; assay type: cell-based; conditions: 72 h continuous exposure
From the text: as §5

HL60/MX2 = assay: Cytostatic activity, panel: HL60/MX2 resistant to mitoxantrone; assay type: cell-based; conditions: for RI HL60 HL60/MX2: IC50(resistant cells)/IC50(sensitive cells)
From the text: as §5

[13] = Homo sapiens, HL-60, 50% inhibition of cell growth after 72 h continuous exposure
[14] = Homo sapiens, HL-60, 96 h continuous exposure
[15] = Homo sapiens, HL60/vinc, 72 h continuous exposure
[16] = IC50(resistant cells)/IC50(sensitive cells)
[17] = Homo sapiens, HL-60, 72 h continuous exposure

Row | SMILES | IC50 [1, 13] | IC50 (HL60/VINC [2]; [15]) | RI resistance index HL60/VINC (HL60/VINC [2]; [16]) | IC50 (HL60/DX [3]; [17]) | RI resistance index HL60/DX (HL60/DX [3]; HL60/DX vs HL60, 72 h) | IC50 ([4]; Homo sapiens, DU-145) | IC50 ([5]; Homo sapiens, LNCaP) | IC50 ([6]; Homo sapiens) | IC50 ([7]; Homo sapiens, MCF7) | IC50 (MCF7/DX; Homo sapiens, MCF7/DX) | RI resistance index MCF7/DX (MCF7/DX) | IC50 ([8]; Homo sapiens, HT-29) | IC50 (HT29/MIT; Homo sapiens, HT-29) | RI resistance index HT29/MIT (HT29/MIT) | RI MES-SA MES-SA/DX5 (MES-SA/DX5) | RI LoVo LoVo/DX (LoVo/DX) | IC50 (CT-DNA) | Kapp relative constant of DNA-compound bonding (CT-DNA) | Effect of blocking MDR-1 pump with cyclosporine A (CSA) on cytostatic activity (HL60/VINC [9]) | Effect of MRP protein inhibitor (BSO) on cytostatic activity (HL60/DX [10]) | also measured
1 | COc1cccc2c1C(=O)c1c(O)c3c(c(O)c1C2=O)C[C@@](O)(C(=O)CO)C[C@@H]3O[C@H]1C[C@H](N)[C@H](O)[C@H](C)O1 [Doxorubicin, reference compound] | 16 ± 1 nM | 882 ± 68 nM | 55.1 | 9480 ± 1300 nM | 592.8 | 38 ± 7.6 nM | 22.4 ± 1.9 nM | 106 ± 7 nM | 19 ± 3.3 nM | 932 ± 145 nM | 49.1 | 64.5 ± 19.2 nM | 97.1 ± 20.9 nM | 1.5 | 181.2 | 54.7 | 80 nM | 1.5e+08 M⁻¹ | has positive influence on maintaining the cytostatic activity | essentially influences the cytostatic activity | IC50 [1, 14]: 9.5 ± 2 nM; IC50 (HL60/VINC [2]; Homo sapiens, HL60/vinc, 96 h continuous exposure, read-out: HL60VINC IC50): 734 ± 72 nM; RI resistance index HL60VINC (HL60/VINC [2]; IC50(resistant cells)/IC50(sensitive cells), 96 h): 77.3; IC50 (HL60/DX [3]; [14]): 1860 ± 143 nM; RI resistance index HL60/DX (HL60/DX [3]; 96 h): 195.7; IC50 (uterus cancer MES-SA): 0.0705 µg/mL (≈ 0.13 µM); IC50 (MES-SA/DX5; 72 h continuous exposure): 13.6 µg/mL (≈ 25 µM); IC50 (colon cancer LoVo): 0.224 µg/mL (≈ 0.413 µM); IC50 (LoVo/DX; 72 h continuous exposure): 12.1 µg/mL (≈ 22.2 µM)
2 | O=C1c2c(O)ccc(O)c2C(=O)c2c(NCCNCCO)ccc(NCCNCCO)c21 [Mitoxantrone, 1,4-dihydroxy-5,8-bis[2-(2-hydroxyethylamino)ethylamino]-9,10-anthracenodione, reference compound] | 2.1 ± 0.2 nM | 65.7 ± 6.7 nM | 31.3 | 3430 ± 661 nM | 1633.8 | 8.5 ± 1.5 nM | 7.4 ± 1.1 nM | 18.6 ± 3.8 nM | 7.4 ± 1.9 nM | 471 ± 160 nM | 63.6 | 11.4 ± 3.9 nM | 854 ± 158 nM | 74.9 | 2.9 | 9.5 | 48 ± 4 nM | 2.61e+08 M⁻¹ | has positive influence on maintaining the cytostatic activity | essentially influences the cytostatic activity | IC50 (uterus cancer MES-SA): 0.23 ± 0.121 µg/mL (≈ 0.517 µM); IC50 (MES-SA/DX5; 72 h continuous exposure): 0.66 ± 0.059 µg/mL (≈ 1.48 µM); IC50 (colon cancer LoVo): 0.22 ± 0.067 µg/mL (≈ 0.495 µM); IC50 (LoVo/DX; 72 h continuous exposure): 2.09 ± 0.519 µg/mL (≈ 4.7 µM); IC50 ([11]; Homo sapiens, CCRF-CEM): 0.0025 µg/mL (≈ 0.00562 µM); IC50 (CEM/C2; Homo sapiens, CEM/C2, 72 h continuous exposure): 0.0028 µg/mL (≈ 0.0063 µM); RI CCRF-CEM CEM/C2 (CEM/C2): 1.1; IC50 ([12]; Homo sapiens, HL-60, read-out: IC50 HL60): 0.0083 µg/mL (≈ 0.0187 µM); IC50 (HL60/MX2; Homo sapiens, HL60/MX2, 72 h continuous exposure): 0.356 µg/mL (≈ 0.801 µM); RI HL60 HL60/MX2 (HL60/MX2): 42.9
3 | CN(C)CCn1nc2c3c(c(NCCN)ccc3c1=O)C(=O)c1ccccc1-2 [BS-121, 2-[2-(Dimethylamino)ethyl]-6-[2-(aminoethyl)amino)-2,7-dihydro-3H-dibenzo[de,h]cynnoline-3,7-dione] | – | – | 10.9 | – | 433.8 | – | – | – | – | – | 1.1 | – | – | 4.1 | – | – | 260 ± 20 nM | 4.83e+07 M⁻¹ | does not essentially affect the cytostatic activity | only partially | IC50 ([1]; 50% inhibition of cell growth after 72 h continuous exposure): 1.3 ± 0.1 nM; IC50 (HL60/VINC [2]; 72 h continuous exposure): 14.2 ± 1.7 nM; IC50 (HL60/DX [3]; 72 h continuous exposure): 564 ± 72 nM; IC50 [4]: 11.3 ± 2.6 nM; IC50 [5]: 5.5 ± 0.7 nM; IC50 [6]: 37.6 ± 8.1 nM; IC50 [7]: 39.6 ± 0.8 nM; IC50 (MCF7/DX): 45.3 ± 8.1 nM; IC50 [8]: 9.7 ± 1 nM; IC50 (HT29/MIT): 39.4 ± 4.3 nM
4 | N.N.[Cl][Pt][Cl] [Cisplatina] | – | – | – | – | – | – | – | – | – | – | – | – | – | – | 1.5 | 1.6 | – | – | – | – | IC50 MES-SA (uterus cancer MES-SA): 2.26 ± 0.58 µg/mL; IC50 MES-SA/DX5 (MES-SA/DX5; 72 h continuous exposure): 3.29 ± 0.15 µg/mL; IC50 LoVo (colon cancer LoVo): 1.59 ± 0.31 µg/mL; IC50 LoVo/DX (LoVo/DX; 72 h continuous exposure): 2.51 ± 0.38 µg/mL; IC50 CCRF-CEM [11]: 1.44 ± 0.49 µg/mL; IC50 CEM/C2 (CEM/C2; 72 h continuous exposure): 0.44 ± 0.19 µg/mL; RI CCRF-CEM CEM/C2 (CEM/C2): 0.3; IC50 HL60 [12]: 0.22 ± 0.12 µg/mL; IC50 HL60/MX2 (HL60/MX2; 72 h continuous exposure): 0.56 ± 0.30 µg/mL; RI HL60 HL60/MX2 (HL60/MX2): 2.5
